Test results published in patent US6468567B1, “Malt beverage having stabilized flavor and methods of production thereof” (Cerveceria Polar, C.A., priority 1997, dated 2002).

Test: Addition of 1,2-phenylenediamine to wort (chromatogram)
Conditions: wort + 1,2-phenylenediamine versus wort; FIG. 5
Procedure: FIG. 5. […] A: wort. B: wort+1,2-phenylenediamine.
A fixed volume (2.2 ml) of 5% 1,2-phenylenediamine (OPD) in methanol was added to a bottle of beer (222 ml) that was then recapped and kept at 20° C. for 12 hours. After 12 hours of reaction, 25 ml of sample were extracted with chloroform (3×8 ml). The chloroform organic phase was removed by centrifugation at 3000 rpm for 10 min, collected, washed with 0.1 M HCl (3×8 ml) in order to remove the unreacted 1,2-phenylenediamine, and semi-dried with magnesium sulfate. The semi-dried organic phase, which contained the hydrophobic quinoxaline derivatives, was then rotavapped to dryness, and the residue resuspended in 250 μl of acetonitrile, and diluted 1/10 (50% solvent A and 50% solvent B) before chromatographic analysis. Hydrophobic quinoxalines were analyzed using Method I (see below). The aqueous phase, containing hydrophilic quinoxalines, was injected directly and analyzed using Method II (see below).
Chromatographic conditions were as follows: a Nova-Pak C18 (Waters) column 3.9×150 mm, 4 μm was used. The mobile phase was: solvent A—95% water (Milli-Q) and 5% acetonitrile; solvent B—90% acetonitrile and 10% water; flow rate 0.7 ml/min. Elution was monitored with a Waters 991 Photodiode Array Detector (200 nm-360 nm).

## Nc1ccccc1N [1,2-phenylenediamine]
  change in the LC18 peak: specific reduction
